Laboratory results taken from patent publication US20040210184A1, “Effect of electric field and ultrasound for transdermal drug delivery” (Massachusetts Institute of Technology, priority 1995, published 2004).
Blank lines part the entries; values can stand above or below the compound they belong to.

What was measured:
[1] = type: in vitro ADME
From the text: Passive experiments without ultrasound with polyethylene glycol 200 dilaurate (PEG), isopropyl myristate (IM), and glycerol trioleate (GT) result in corticosterone flux enhancement values of only 2, 5, and 0.8, relative to the passive flux from PBS alone. […] These passive flux enhancements were due to (1) the increased corticosterone solubility in the enhancers, and (2) interactions of linoleic acid with the skin. Specifically, linoleic acid increased the corticosterone permeability by nearly 20-fold over that from 50% ethanol alone. […] Ultrasound combined with 50% ethanol produces a 2-fold increase in corticosterone transport above the passive case, but increase by 14-fold the transport from LA/Ethanol.

[2] = Stability of the molecules under electroporating conditions and temperature, measured by fluorescence; type: physicochemical; settings: 1 mM solutions under electroporating conditions
Procedure: In order to assess the stability of these molecules during electroporation, calcein and sulphorhodamine solutions (1 mM each) were exposed to electroporating conditions similar to those used in this study. No difference between the intensity of their fluorescence before and after exposure to electric fields could be detected. In addition, these molecules are stable up to a temperature of 100° C. (measured in terms of fluorescence).

[3] = human, 1 mM, pH 7.4
Procedure: Full thickness of human cadaver skin (obtained from local hospitals) was heat stripped by immersion in 60° C. water for two minutes followed by the removal of the epidermis. The skin was then stored in a humidified chamber (95% relative humidity) at 4° C. The heat-stripped human epidermis was placed in a custom-made side-by-side permeation chamber, skin area of 0.64 cm^2, designed to adapt an ultrasound transducer at the donor side. The donor compartment was filled with a 1 mM solution of calcein (MW 623, electric charge—4; Sigma Chemicals) (CA) and 1 mM sulphorhodamine (MW 607, electric charge—1; Sigma Chemical) (SR) in 150 mM Phosphate Buffer Saline (PBS; Sigma Chemicals).
The ultrasound probe was inserted into the donor compartment. […]
The fluorometer was set up for dual wavelength measurements (excitation wavelength=488 nm, emission wavelength=515 nm (calcein), and excitation wavelength =586 nm, emission wavelength=607 nm (sulphorhodamine)). […] Transdermal calcein and sulphorhodamine flux was calculated from the fluorescence readings by taking into account parameters such as flow rate, receiver compartment volume, and fluorometer caveat volume. The effluent from the receptor compartment was pumped through a spectrofluorometer (Fluorolog-II-system F112AI SPEX-industries, Edison, N.J.) where the fluorescence of calcein and sulphorhodamine was separately measured twice every minute. […]

[4] = ethanol as chemical enhancer; cited from earlier work

flux [1]: 0.16 mg/cm^2/hr | flux relative to that from PBS alone [1]: 13,000 fold | flux with ultrasound relative to the passive flux from the same enhancers [1]: 1.3-5.0 | permeability increase by linoleic acid over that from 50% ethanol alone [1]: ~20 fold
SMILES: C[C@]12C[C@H](O)[C@H]3[C@@H](CCC4=CC(=O)CC[C@@]43C)[C@@H]1CC[C@@H]2C(=O)CO [corticosterone]

difference in fluorescence intensity before and after exposure to electric fields [2]: No difference
SMILES: O=S(=O)([O-])c1cc(S(=O)(=O)O)ccc1C1=c2cc3c4c(c2Oc2c1cc1c5c2CCCN5CCC1)CCC[N+]=4CCC3 [sulphorhodamine]

difference in fluorescence intensity before and after exposure to electric fields [2]: No difference | enhancement: amount transported in the presence of ultrasound-electric field pulsing to that in the presence of electric field pulsing alone [3]: 2
SMILES: O=C(O)CN(CC(=O)O)Cc1cc2c(cc1O)Oc1cc(O)c(CN(CC(=O)O)CC(=O)O)cc1C21OC(=O)c2ccccc21 [calcein]

SMILES: C[C@]12CC[C@@H]3c4ccc(O)cc4CC[C@H]3[C@@H]1CC[C@@H]2O [estradiol]
flux increase by ethanol [4]: 140 fold
